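Each compound was tested at five concentrations against cells in 96-well plates for 48 hours. The concentration for 50% growth inhibition is given as GI50. TGI: concentration producing complete growth inhibition.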
How the values were obtained:
Experiment in all cases: NCI tumour cell line growth inhibition, 48 h
CCRF-CEM leukemia = system: CCRF-CEM leukemia
DU-145 prostate = system: DU-145 prostate
HCT-15 colon = system: HCT-15 colon
MOLT-4 leukemia = system: MOLT-4 leukemia
NCI-H23 lung = system: NCI-H23 lung
OVCAR-4 ovarian = system: OVCAR-4 ovarian
SF-268 CNS = system: SF-268 CNS
SK-MEL-2 melanoma = system: SK-MEL-2 melanoma
UO-31 renal = system: UO-31 renal
HL-60(TB) leukemia = system: HL-60(TB) leukemia

Compound	GI50 (CCRF-CEM leukemia) [µM]	TGI (CCRF-CEM leukemia) [µM]	GI50 (DU-145 prostate) [µM]	TGI (DU-145 prostate) [µM]	GI50 (HCT-15 colon) [µM]	TGI (HCT-15 colon) [µM]	GI50 (MOLT-4 leukemia) [µM]	TGI (MOLT-4 leukemia) [µM]	GI50 (NCI-H23 lung) [µM]	TGI (NCI-H23 lung) [µM]	GI50 (OVCAR-4 ovarian) [µM]	TGI (OVCAR-4 ovarian) [µM]	GI50 (SF-268 CNS) [µM]	TGI (SF-268 CNS) [µM]	GI50 (SK-MEL-2 melanoma) [µM]	TGI (SK-MEL-2 melanoma) [µM]	GI50 (UO-31 renal) [µM]	TGI (UO-31 renal) [µM]	TGI (HL-60(TB) leukemia) [µM]
C=CN(C(=O)N1CCN(c2cc3c(cc2F)c(=O)c(C(=O)O)cn3C2CC2)CC1)c1nc(-c2ccc(OC)cc2)cs1	3.45	> 100	3.93	> 100	2.86	> 100	3.36	> 100	3.48	14.9	3.96	> 100	4.14	> 100	2.59	5.21	2.1	> 100	–
O=C(NCCCCN1CCOCC1)c1cc2ccccc2o1	–	–	> 100	> 100	> 100	> 100	–	–	> 100	> 100	> 100	> 100	> 100	> 100	> 100	> 100	> 100	> 100	–
COc1cc(/C=C2\CC3C4CC=C5C[C@@H](OC(C)=O)CC[C@]5(C)C4CC[C@]3(C)C2=O)ccc1OCCN1CCCCC1 (stereo not given in full)	1.25	3.35	5.18	17.4	1.29	3.25	1.16	3.23	10.4	22.2	15.1	49	3.39	31.4	10.1	28.4	1.98	4.99	–
CCc1cccc(C(C)C)c1NC(=O)C(=O)C1C(=O)Nc2ccccc2S1=O (stereo not given)	–	> 100	–	> 100	–	> 100	–	> 100	–	> 100	–	> 100	–	> 100	–	> 100	–	> 100	–
NC(=O)NNC(=O)CCn1[nH]c(=O)c(Cl)c(Cl)c1=O	–	> 100	–	–	–	> 100	–	–	–	> 100	–	> 100	–	> 100	–	> 100	–	> 100	> 100
O=C(CN(/C=C/C(=O)C(F)(F)F)c1ccc(Cl)cc1)c1ccc(Cl)cc1	5.11	24.4	15.1	29.5	6.83	20.4	8.82	37.4	6.3	20.9	12	32.4	11.5	29.4	3.88	14.4	12	24.8	–
O=C(/C=C\c1ccccc1O)c1ccc(O)cc1O	–	> 100	–	–	–	> 100	–	> 100	–	> 100	–	> 100	–	> 100	–	> 100	–	> 100	> 100
Cc1c(C)n(CCCN2CCN(C)CC2)c2ccc(Oc3cccc(C(=O)N4CCN(CCc5ccc(F)cc5)CC4)c3)cc12	–	–	1.86	3.6	1.59	3.09	–	–	1.85	3.49	1.84	3.92	1.79	3.78	–	–	1.23	2.52	–
Cc1ccc(C)c(N2C(=O)C(=O)C(c3nc4ccccc4s3)/C(=N/N)C2=O)c1 (stereo not given)	–	> 100	–	–	–	> 100	–	> 100	–	> 100	–	> 100	–	> 100	–	> 100	–	> 100	> 100
C=CSCCC(N)C(=O)O (stereo not given)	–	> 100	–	–	–	> 100	–	> 100	–	> 100	–	> 100	–	> 100	–	–	–	> 100	> 100
COC1CCC(OS(C)(=O)=O)C(CO)O1 (stereo not given)	–	> 100	–	–	–	> 100	–	> 100	–	> 100	–	–	–	–	–	> 100	–	> 100	> 100
C=CCNC(=O)NCCCCC(NC(C)=O)C(=O)NCc1ccccc1 (stereo not given)	–	> 100	–	–	–	> 100	–	> 100	–	> 100	–	> 100	–	> 100	–	> 100	–	> 100	> 100
Cc1nc([N+](=O)[O-])cn1-c1nc2ccccn2c1[N+](=O)[O-]	–	–	–	83.6	–	> 100	–	–	–	> 100	–	> 100	–	> 100	–	> 100	–	> 100	–
CC1(C)OC2C(CCP(=O)(O)O)OC(c3nc(C(N)=O)cs3)C2O1 (stereo not given)	–	> 100	–	–	–	> 100	–	> 100	–	> 100	–	> 100	–	> 100	–	> 100	–	> 100	–
COc1ccc(/C=C\c2cc(OC)c(OC)c(OC)c2)cc1OCC(=O)Nc1nc2ccc(F)cc2s1	3.7	> 100	8.97	> 100	8.19	> 100	3.07	> 100	4.26	> 100	7.3	> 100	7.23	> 100	8.46	> 100	2.56	> 100	–
C=C(CCCCC)CN1CCCC1C(C)=O (stereo not given)	–	41.2	–	–	–	> 100	–	33	–	65.1	–	99.3	–	> 100	–	> 74.7	–	> 100	19.7
C=C(C)[C@H]1CC[C@@]2(C)C(C1)[C@H](C)CC[C@@H]2O (stereo not given in full)	–	> 100	–	–	–	> 100	–	> 100	–	> 100	–	> 100	–	> 100	–	> 100	–	> 100	–
COC(=O)c1cc2c(=O)n(C)c3ccccc3n2c1C(=O)OC	–	> 100	–	–	–	> 100	–	> 100	–	> 100	–	> 100	–	> 100	–	> 100	–	> 100	–
CC(=O)Nc1ccc(/C=C/C(=O)c2sc(-c3cccnc3)nc2C)cc1	–	> 100	–	–	–	> 100	–	> 100	–	> 100	–	–	–	> 100	–	> 100	–	> 100	> 100

— PubChem BioAssay (NCI)
